From patent US20200368262A1, “Use of Timosaponin Enzymatically Transformed Product in Preparation of Drugs for Inhibiting Skin Superficial Fungi” (Shanghai University of Traditional Chinese Medicine, priority 2019, published 2020)
In brackets after ≈: the same amount, converted by molar mass.

Assays:
Experiment in all cases: Trace liquid-based dilution MIC
Assay type in all cases: cell-based
[1] = system: C. albicans SC5314; settings: Candida albicans, MIC80 (OD 630 nm reduced by 80% or more), 35° C., 24 hours, read-out: In vitro Bacteriostatic Activity (MIC) C. albicans SC5314
Description: (§1) Spherical bacteria such as cryptococcus neoformans and candida albicans were taken, and activated with YEPD culture solution, and then the concentration of the bacteria solution was adjusted with RPM11640 culture solution to 1×10^3˜5 ×10^3 CFU/mL.
(§2) In the present experiment, the minimum inhibitory concentrations of the ethanol extract of rhizoma anemarrhenae and the timosaponin enzymatically transformed product against five common pathogenic fungi were detected by through a trace liquid-based dilution method recommended by the Clinical and Laboratory Standards Institute and the Chinese pharmacopoeia. Fluconazole was used as a positive control drug.
(§3) A specific experimental method is as follows: candida albicans, cryptococcus neoformans, trichophyton rubrum, trichophyton mentagrophytes, and microsporum gypseum were inoculated to a 96-well plate, respectively. The drug with different concentrations was added to the culture, wherein final concentrations of the drug were 64 mg/L, 32 mg/L, 16 mg/L, 8 mg/L, 4 mg/L, 2 mg/L, 1 mg/L, and 0.5 mg/L, respectively. Fungi treated without drug was used as positive control. The candida albicans was cultured at 35° C. for 24 hours while the cryptococcus neoformans was cultured at 35° C. for 72 hours and the trichophyton rubrum, the trichophyton mentagrophytes, and the microsporum gypseum were cultured at 30° C. for 7 days. The OD value of each well under the wavelength of 630 nm was measured using an microplate reader. The lowest drug concentration with an OD value reduced by 80% or more compared with the positive control wells was considered as MIC8o, namely the drug concentration inducing 80% inhibition against fungus growth was inhibited by 80%. When the MIC80 value of the drug was higher than the maximum concentration of 64 mg/L, “>64 mg/L” was recorded.

[2] = system: C. albicans Y0109; settings: Candida albicans, MIC80 (OD 630 nm reduced by 80% or more), 35° C., 24 hours, read-out: In vitro Bacteriostatic Activity (MIC) C. albicans Y0109
Description: as §1, §2, §3

[3] = system: Cryptococcus neoformans 32609; settings: MIC80 (OD 630 nm reduced by 80% or more), 35° C., 72 hours, read-out: In vitro Bacteriostatic Activity (MIC) Cryptococcus neoformans 32609
Description: as §1, §2, §3

[4] = system: Microsporum gypseum mzc; settings: MIC80 (OD 630 nm reduced by 80% or more), 30° C., 7 days; for MIC: Nannizzia gypsea, 168 h, read-out: In vitro Bacteriostatic Activity (MIC) Microsporum gypseum mzc
Description: (§4) Trichophyton rubrum, microsporum gypseum, and trichophyton mentagrophytes were activated with a Sabouraud glucose agar culture medium, and the concentration of spores was adjusted with an RPM11640 culture solution to 1×10^35×10^3 CFU/mL.
as §2, §3

[5] = system: Trichophyton rubrum tia; settings: MIC80 (OD 630 nm reduced by 80% or more), 30° C., 7 days; for MIC: Trichophyton rubrum, 168 h, read-out: In vitro Bacteriostatic Activity (MIC) Trichophyton rubrum tia
Description: as §4, §2, §3

[6] = system: trichophyton mentagrophytes t5a; settings: MIC80 (OD 630 nm reduced by 80% or more), 30° C., 7 days; for MIC: Trichophyton mentagrophytes, T5A, 168 h, read-out: In vitro Bacteriostatic Activity (MIC) trichophyton mentagrophytes t5a
Description: as §4, §2, §3

| MIC [1] [µg/mL] | MIC [2] [µg/mL] | MIC [3] [µg/mL] | MIC [4] [µg/mL] | MIC [5] [µg/mL] | MIC [6] [µg/mL] | Structure (SMILES) | In vitro Bacteriostatic Activity (MIC) Microsporum gypseum mzc ([4]; listed as timosaponin Alll) [µg/mL] | In vitro Bacteriostatic Activity (MIC) Trichophyton rubrum tia ([5]; listed as timosaponin Alll) [µg/mL] | In vitro Bacteriostatic Activity (MIC) trichophyton mentagrophytes t5a ([6]; listed as timosaponin Alll) [µg/mL] |
| --- | --- | --- | --- | --- | --- | --- | --- | --- | --- |
| 0.5 (≈ 0.713 µM) | 1 (≈ 1.43 µM) | 0.25 (≈ 0.357 µM) | 0.25 (≈ 0.357 µM) | 2 (≈ 2.85 µM) | 0.25 (≈ 0.357 µM) | CC[C@@H]([C@H](C)O)n1ncn(-c2ccc(N3CCN(c4ccc(OC[C@@H]5CO[C@@](Cn6cncn6)(c6ccc(F)cc6F)C5)cc4)CC3)cc2)c1=O [posaconazole] |  |  |  |
| 0.5 (≈ 1.63 µM) | 1 (≈ 3.27 µM) | 1 (≈ 3.27 µM) | 8 (≈ 26.1 µM) | 2 (≈ 6.53 µM) | 32 (≈ 104 µM) | OC(Cn1cncn1)(Cn1cncn1)c1ccc(F)cc1F [fluconazole] |  |  |  |

| Structure (SMILES) | MIC [1] [µg/mL] | MIC [2] [µg/mL] | MIC [3] [µg/mL] | MIC [4] [µg/mL] | MIC [5] [µg/mL] | MIC [6] [µg/mL] | In vitro Bacteriostatic Activity (MIC) Microsporum gypseum mzc ([4]; listed as timosaponin Alll) [µg/mL] | In vitro Bacteriostatic Activity (MIC) Trichophyton rubrum tia ([5]; listed as timosaponin Alll) [µg/mL] | In vitro Bacteriostatic Activity (MIC) trichophyton mentagrophytes t5a ([6]; listed as timosaponin Alll) [µg/mL] |
| --- | --- | --- | --- | --- | --- | --- | --- | --- | --- |
| C[C@H]1CC[C@@]2(OC1)O[C@H]1C[C@H]3[C@@H]4CC[C@@H]5C[C@@H](O[C@@H]6O[C@H](CO)[C@H](O)[C@H](O)[C@H]6O[C@@H]6O[C@H](CO)[C@@H](O)[C@H](O)[C@H]6O)CC[C@]5(C)[C@H]4CC[C@]3(C)[C@H]1[C@@H]2C [timosaponin AIII] | 4 (≈ 5.4 µM) | 4 (≈ 5.4 µM) | 4 (≈ 5.4 µM) | 4 (≈ 5.4 µM) | 4 (≈ 5.4 µM) | 4 (≈ 5.4 µM) | 2 | 2 | 2 |
